Results on 15 molecules are retold here after the supplement of paper PMC10627819.

Holding throughout (assay): Bliss interaction score (quartile over a dose matrix) (fitness difference); higher = more antagonism (negative = synergy)
The test system of one assay is S. aureus Newman. In short, it runs like this: (§1)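 Each OD595 reading at entry into stationary phase was scaled to the robust mean of the untreated wells on its plate, with a ceiling of 1. These ratios define fitness, and single-drug fitness was inferred from combinations. The Bliss score compares observed fitness with the product-based expectation and is reported as quartiles across all replicate types, technical, biological and donor/recipient.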

The next assay has as its system S. aureus DSM 20231. The method in brief:
as §1

In another assay the test system is S. pneumoniae D39V. In short, it runs like this:
as §1

The next assay has as its system B. subtilis 168. In short, it runs like this:
as §1
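Also: first quartile when negative (synergy) and third quartile when positive (antagonism).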

For `N#CC(C#N)=NNc1cccc(Cl)c1` [CCCP] + CN[C@H](CC(C)C)C(=O)N[C@H]1C(=O)N[C@@H](CC(N)=O)C(=O)N[C@H]2C(=O)N[C@H]3C(=O)N[C@H](C(=O)N[C@H](C(=O)O)c4cc(O)cc(O)c4-c4cc3ccc4O)[C@H](O[C@H]3C[C@](C)(N)[C@@H](O)[C@H](C)O3)c3ccc(c(Cl)c3)Oc3cc2cc(c3O[C@@H]2O[C@H](CO)[C@@H](O)[C@H](O)[C@H]2O[C@H]2C[C@](C)(NCc3ccc(-c4ccc(Cl)cc4)cc3)[C@@H](O)[C@H](C)O2)Oc2ccc(cc2Cl)[C@H]1O [Oritavancin], the Bliss interaction score in the assay with S. aureus Newman was 0.0576; with S. aureus DSM 20231 it was -0.0305; in the assay with S. pneumoniae D39V, 0.0676; in the assay on B. subtilis 168 it was 0.0275.
For the molecule `CN(C)[C@@H]1C(O)=C(C(N)=O)C(=O)[C@@]2(O)C(O)=C3C(=O)c4c(O)ccc(Cl)c4[C@@](C)(O)[C@H]3C[C@@H]12` [Clortetracycline] + C[C@@H](O)[C@H]1C(=O)N2C(C(=O)O)=C(SCCNC=N)C[C@H]12 [Imipenem], the Bliss interaction score in the assay with S. aureus Newman was 0.0268; in the assay with S. aureus DSM 20231, 0.039; in the assay on S. pneumoniae D39V it was -0.0487; with B. subtilis 168, 0.194.
For `CC1(C)S[C@@H]2[C@H](NC(=O)Cc3ccccc3)C(=O)N2[C@H]1C(=O)O` [PenicillinG] + COc1ccc(C[C@H](N)C(=O)N[C@H]2[C@@H](O)[C@H](n3cnc4c(N(C)C)ncnc43)O[C@@H]2CO)cc1 [Puromycin] the same measures were 0.0759, -0.0369, 0.0834 and 0.0536.
For `CN(C)[C@@H]1C(O)=C(C(N)=O)C(=O)[C@@]2(O)C(O)=C3C(=O)c4c(O)ccc(Cl)c4[C@@](C)(O)[C@H]3C[C@@H]12` [Clortetracycline] + Cc1cc(NS(=O)(=O)c2ccc(N)cc2)no1 [Sulfamethoxazol] the same measures were 0.0566, -0.058, -0.0455 and 0.0702.
For `CN(C)[C@@H]1C(O)=C(C(N)=O)C(=O)[C@@]2(O)C(O)=C3C(=O)c4c(O)ccc(Cl)c4[C@@](C)(O)[C@H]3C[C@@H]12` [Clortetracycline] + C[C@H]1c2cccc(O)c2C(=O)C2=C(O)[C@]3(O)C(=O)C(C(N)=O)=C(O)[C@@H](N(C)C)[C@@H]3[C@@H](O)[C@@H]21 [Doxycycline] the same measures were -0.0257, -0.0625, -0.0483 and -0.0687.
Turning to `CN(C)[C@@H]1C(O)=C(C(N)=O)C(=O)[C@@]2(O)C(O)=C3C(=O)c4c(O)ccc(Cl)c4[C@@](C)(O)[C@H]3C[C@@H]12` [Clortetracycline] + Cn1nnc(-c2ccc(-c3ccc(N4C[C@H](CO)OC4=O)cc3F)cn2)n1 [Tedizolid], the Bliss interaction score was -0.0562 in the assay with S. aureus Newman, -0.0502 with S. aureus DSM 20231, 0.0607 in the assay with S. pneumoniae D39V and -0.105 in the assay on B. subtilis 168.
For `CC1(C)S[C@@H]2[C@H](NC(=O)Cc3ccccc3)C(=O)N2[C@H]1C(=O)O` [PenicillinG] + CCN(CC)CCOC(=O)c1ccc(N)cc1 [Procaine] the same measures were 0.0542, -0.0657, 0.0857 and 0.0367.
For `CC(=O)Oc1ccccc1C(=O)O` [Acetylsalicylicacid] + O=C(O[C@@H]1Cc2c(O)cc(O)cc2O[C@@H]1c1cc(O)c(O)c(O)c1)c1cc(O)c(O)c(O)c1 [EGCG] the same measures were 0.0426, 0.159, -0.0702 and 0.141.
Taken in the same sequence, the figures for `N#CC(C#N)=NNc1cccc(Cl)c1` [CCCP] + O=C(N[C@H](CO)[C@H](O)c1ccc([N+](=O)[O-])cc1)C(Cl)Cl [Chloramphenicol] were 0.076, -0.0344, -0.0866 and -0.0662.
With `CC1(C)S[C@@H]2[C@H](NC(=O)Cc3ccccc3)C(=O)N2[C@H]1C(=O)O` [PenicillinG] + CC1=C\[C@@H](O)CC(=O)Cc2nc(co2)C(=O)N2CCC=C2C(=O)O[C@H](C(C)C)[C@H](C)/C=C/C(=O)NC\C=C\1 [Virginiamycin M1], the Bliss interaction score was 0.0409 in the assay with S. aureus Newman, -0.0526 with S. aureus DSM 20231, 0.099 in the assay on S. pneumoniae D39V and 0.0479 with B. subtilis 168.
Taken in the same sequence, the figures for `CC(=O)Oc1ccccc1C(=O)O` [Acetylsalicylicacid] + CC[C@H]1OC(=O)[C@H](C)[C@@H](O[C@H]2C[C@@](C)(OC)[C@@H](O)[C@H](C)O2)[C@H](C)[C@@H](O[C@@H]2O[C@H](C)C[C@H](N(C)C)[C@H]2O)[C@](C)(O)C[C@@H](C)CN(C)[C@H](C)[C@@H](O)[C@]1(C)O [Azithromycin] were 0.105, 0.179, 0.0486 and 0.153.
Taken in the same sequence, the figures for `N#CC(C#N)=NNc1cccc(Cl)c1` [CCCP] + CO[C@@]12[C@H](COC(N)=O)C3=C(C(=O)C(C)=C(N)C3=O)N1C[C@@H]1N[C@@H]12 [MitomycinC] were -0.0345, -0.0844, -0.0605 and -0.051.
For `CC(=O)Oc1ccccc1C(=O)O` [Acetylsalicylicacid] + C[C@H]1c2cccc(O)c2C(=O)C2=C(O)[C@]3(O)C(=O)C(C(N)=O)=C(O)[C@@H](N(C)C)[C@@H]3[C@@H](O)[C@@H]21 [Doxycycline] the same measures were 0.0416, -0.0455, 0.1 and -0.164.
With `CN(C)[C@@H]1C(O)=C(C(N)=O)C(=O)[C@@]2(O)C(O)=C3C(=O)c4c(O)ccc(Cl)c4[C@@](C)(O)[C@H]3C[C@@H]12` [Clortetracycline] + CC(=O)NC[C@H]1CN(c2ccc(N3CCOCC3)c(F)c2)C(=O)O1 [Linezolid], the Bliss interaction score in the assay with S. aureus Newman was -0.0457; with S. aureus DSM 20231, -0.0326; in the assay on S. pneumoniae D39V, -0.0813; in the assay with B. subtilis 168 it was -0.259.
For the molecule `N#CC(C#N)=NNc1cccc(Cl)c1` [CCCP] + CO/N=C(\C(=O)N[C@@H]1C(=O)N2C(C(=O)[O-])=C(C[N+]3(C)CCCC3)CS[C@H]12)c1csc(N)n1 [Cefepime], the Bliss interaction score with S. aureus Newman was 0.0498; with S. aureus DSM 20231 it was 0.1; with S. pneumoniae D39V it was -0.0827; with B. subtilis 168, 0.0769.
